The text below walks through data of publication PMC10332405 (European journal of medicinal chemistry, 2023).

pEC50, pKi: −log10 of the molar value.

In one experiment the target is HIV-1 protease I84V (Human immunodeficiency virus type 1 group M subtype B, UniProt P12497, I572V/Q495K). Kind of experiment: biochemical.
The next experiment has as its target HIV-1 protease I50V/A71V (Human immunodeficiency virus type 1 group M subtype B, UniProt P12497, A559V/I538V/Q495K). Kind of experiment: biochemical.
Experiment [1] deals with human T-cell lymphotropic virus type 1 (HTLV-1) protease. Particulars: cited from earlier work.
Another experiment relates to HIV-1-SLK. Kind of experiment: Antiviral assay with resistant HIV-1 variant SLK. Type of experiment: cell-based. The settings on record: read-out: Antiviral EC50, HIV-1-SLK; multi-PI resistant recombinant virus.

With `CCOP(=O)(COc1ccc(C[C@H](NC(=O)O[C@H]2CO[C@H]3OCC[C@H]32)[C@H](O)CN(CC(C)C)S(=O)(=O)c2ccc(OC)cc2)cc1)OCC` [GS-8374], the pKi at HIV-1 protease I84V and on HIV-1 protease I50V/A71V was greater than 11.30 in each case.
Turning to `CCOP(=O)(COc1ccc(C[C@H](NC(=O)O[C@H]2CO[C@H]3OCC[C@H]32)[C@H](O)CN(CC(CC)CC)S(=O)(=O)c2ccc(N)cc2)cc1)OCC` [PU6, (3R,3aS,6aR)-Hexahydrofuro[2,3-b]furan-3-yl ((2S,3R)-4-((4-amino-N-(2-ethylbutyl)phenyl)sulfonamido)-1-(4-((diethoxyphosphoryl)methoxy)phenyl)-3-hydroxybutan-2-yl)carbamate], the “Inhibition of HTLV-1 protease” value in experiment [1] is listed as “potent inhibitor”.
In the case of `CCOP(=O)(COc1ccc(C[C@H](NC(=O)O[C@H]2CO[C@H]3OCC[C@H]32)[C@H](O)CN(CC(CC)CC)S(=O)(=O)c2ccc(OC)cc2)cc1)OCC` [PU7, (3R,3aS,6aR)-Hexahydrofuro[2,3-b]furan-3-yl ((2S,3R)-1-(4-((diethoxyphosphoryl)methoxy)phenyl)-4-((N-(2-ethylbutyl)-4-methoxyphenyl)sulfonamido)-3-hydroxybutan-2-yl)carbamate], the pEC50 in the experiment on HIV-1-SLK is greater than 8.00.
Still for that read-out and setting: the value for `CCOP(=O)(COc1ccc(C[C@H](NC(=O)O[C@H]2CO[C@H]3OCC[C@H]32)[C@H](O)CN(CC(CC)CC)S(=O)(=O)c2ccc3c(c2)OCO3)cc1)OCC` [PU9, (3R,3aS,6aR)-Hexahydrofuro[2,3-b]furan-3-yl ((2S,3R)-1-(4-((diethoxyphosphoryl)methoxy)phenyl)-4-(N-(2-ethylbutyl)benzo[d][1,3]dioxole-5-sulfonamido)-3-hydroxybutan-2-yl)carbamate] was greater than 8.00.
